Assay [1] addresses T1, human emopamil binding protein and human 7-dehydrocholesterol reductase (hEBP-DHCR7) (Homo sapiens, UniProt Q15125).
T1 construct: expressed in transfected cells; host or cells: HEK 293 cells, transient transfection with 2 DNA constructs
The experiment in a line: hEBP-DHCR7 radioligand filtration binding assay. The note with it: membranes of HEK293 co-expressing hEBP and DHCR7; [3H] 2-thia-6-azaspiro[3.4]octane radioligand; 8 doses 0.06 to 5000 nM. In outline: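 Membranes from HEK293 cells transiently co-expressing human EBP and DHCR7 (10 μg/well) incubated 3 h at 22 °C with tritiated 2-thia-6-azaspiro[3.4]octane dioxide radioligand (25 nM stock addition) and compound at 0.06–5000 nM final. Bound ligand collected on PEI-treated GF/B filters, scintillation-counted. IC50 by Hill fit; reported as Ki.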

The next assay deals with EpiSC-derived OPCs. The experiment in a line: In vitro phenotypic screening of OPCs (MBP high-content imaging). The format is cell-based. The note with it: Mus musculus, 72 h; percentage of MBP-positive oligodendrocytes, 3 days, 0.5 nM to 1000 nM; read-out: OPC EC50. Here is the method: To assess effects of treatments on OPCs, all treatments were assayed in two or more independent platings of epiblast stem cell-derived OPCs (EpiSC). EpiSC-derived OPCs were obtained using in vitro differentiation protocols and culture conditions described previously (Najm et al, 2011, Nature Methods). OPCs were expanded and frozen down in aliquots. OPCs were thawed into growth conditions for at least one passage before use in further assays.
EpiSC-derived OPCs were grown and expanded in poly-L-ornithine (PO) and laminin-coated flasks in N2B27 media (DMEM/F12 (Gibco), N2-MAX (R&D Systems), B-27 (ThermoFisher), and GlutaMax (Gibco)) supplemented with FGF2 ([…], R&D systems, 233-FB-025) and PDGF-AA ([…], R&D systems, 233-AA-050) before harvesting for experiments. The cells were seeded onto poly-L-ornithine or poly-D-lysine coated CellCarrier Ultra plates (PerkinElmer) coated with laminin (Sigma, L2020) at a density of 150,000/cm^2 in N2B27 media without growth factors. For dose-response testing, a 1000× compound stock in dimethyl sulphoxide (DMSO) was added to assay plates, resulting in 8-point dose curves with final concentrations between 1000 nM and 0.5 nM. Positive controls and DMSO vehicle controls were included in each assay plate. Cells were incubated under standard conditions (37° C., 5% CO2) for 3 days and fixed with 4% paraformaldehyde (PFA) in phosphate buffered saline (PBS) for 20 min. Fixed plates were washed with PBS, permeabilized with 0.1% Triton X-100, and blocked with 10% donkey serum (v/v) in PBS for 40 min. Then, cells were labelled with MBP antibodies (Abcam, ab7349; 1:200) for 2 h at room temperature, washed with PBS, and stained with Alexa Fluor conjugated secondary antibodies (1:500) for 45 min. Nuclei were visualized by DAPI staining (Sigma; 1 μg/ml), followed by further PBS washes.
Cells and cell culture plates were imaged on the Operetta High Content Imaging and Analysis system (PerkinElmer). Analysis (PerkinElmer Harmony and Columbus software) began by identifying intact nuclei stained by DAPI. The peri-nuclear region of each cell was then cross-referenced with the […] (MBP) stain to identify oligodendrocyte nuclei, and from this the percentage of oligodendrocytes was calculated.

The test system of assay [2] is zymostenol accumulation in EpiSC-derived OPCs (EBP). The experiment in a line: GC/MS-based sterol profiling (zymostenol accumulation). The format is cell-based. The note with it: Mus musculus, 24 hours, 8 doses from 0.15 nM to 333 nM, read-out: Zymostenol GCMS EC50. In outline:
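Zymostenol level is expressed relative to that after 24 h with 100 nM positive-control reference, measured by full-scan GC/MS (m/z 458) with cholesterol-d7 internal standard after BSTFA derivatisation. Cells were EpiSC-derived OPCs, 100,000/well in N2B27 without growth factors, treated 24 h, from two or more independent platings.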

Usually Ki stands for the equilibrium dissociation constant of an inhibitor or competing ligand from its target. Lower therefore signals tighter binding. One may read the EC50 as the concentration giving half of the maximal effect.

T1 sequence (Q15125 whole entry): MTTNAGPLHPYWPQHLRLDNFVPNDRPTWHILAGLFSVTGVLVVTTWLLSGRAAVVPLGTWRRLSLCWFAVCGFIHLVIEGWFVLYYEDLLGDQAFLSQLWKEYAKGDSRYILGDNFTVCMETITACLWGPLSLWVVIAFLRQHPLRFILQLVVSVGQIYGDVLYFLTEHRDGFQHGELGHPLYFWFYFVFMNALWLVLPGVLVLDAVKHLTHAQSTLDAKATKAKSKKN

`CCn1nc(-c2cncc(C(F)(F)F)c2)cc1[C@H]1[C@@H]2C[C@@H](N3CCC4(CC3)CS(=O)(=O)C4)C[C@@H]21` (single isomer, unassigned) [Compound 53*]: the Ki in assay [1] turned out to be 97.3 nM. In addition, the EC50 in the assay with EpiSC-derived OPCs came out at 33 nM; in assay [2], 6.8 nM.

In assay [1], `CC(C)n1nc(-c2cncc(C(F)(F)F)c2)cc1[C@H]1[C@@H]2C[C@H](N3CC[C@]4(CCS(=O)(=O)C4)C3)C[C@@H]21` (single isomer, unassigned) [Compound 10*] had a Ki of 19.9 nM. Further, the EC50 in the assay on EpiSC-derived OPCs worked out at 13 nM; in assay [2], 4.8 nM.

Regarding `O=S1(=O)CC2(CCN([C@H]3C[C@@H]4[C@H](C3)[C@H]4c3cc(C(F)(F)F)nn3CC(F)F)CC2)C1` (single isomer, unassigned) [Compound 63*], the Ki in assay [1] was 65.2 nM. The results for the EC50 (with EpiSC-derived OPCs; in assay [2]) were 130 nM and 19 nM, respectively.

Regarding `CC(C)n1nc(-c2cncc(OC(F)F)c2)cc1[C@H]1[C@@H]2C[C@H](N3CCC4(CC3)CS(=O)(=O)C4)C[C@@H]21` (single isomer, unassigned) [Compound 46*], the Ki in assay [1] was 34.6 nM. The 50% effective concentration (EC50) in the assay on EpiSC-derived OPCs came out at 44 nM; in assay [2] it was 24 nM.

In assay [1], `CC(C)n1nc([C@H]2CC[C@](O)(C(F)(F)F)CC2)cc1[C@H]1[C@@H]2C[C@@H](N3CCC4(C3)CS(=O)(=O)C4)C[C@@H]21` (single isomer, unassigned) [Compound 104*] had an inhibition constant (Ki) of 164 nM. In addition, the EC50 in the assay with EpiSC-derived OPCs came out at 175 nM; in assay [2], 25.8 nM.

As for `CC(C)n1nc(-c2cncc(OC(F)F)c2)cc1[C@H]1[C@@H]2C[C@@H](N3CCC4(CC3)CS(=O)(=O)C4)C[C@@H]21` (single isomer, unassigned) [Compound 45*], the Ki in assay [1] was 131 nM. The 50% effective concentration (EC50) was 14 nM in the assay with EpiSC-derived OPCs and 8.1 nM in assay [2].

In assay [1], `CC(C)n1nc(-c2cncc(C(F)(F)F)c2)cc1[C@H]1[C@@H]2C[C@@H](N3CCC4(C3)CS(=O)(=O)C4)C[C@@H]21` (single isomer, unassigned) [Compound 3] gave a Ki of 16.2 nM. Further, the EC50 came out at 34 nM in the assay with EpiSC-derived OPCs and 3.9 nM in assay [2].

In turn, `CC(C)n1nc(-c2ccc(C(F)(F)F)nc2)cc1[C@H]1[C@@H]2C[C@@H](N3CCC4(C3)CS(=O)(=O)C4)C[C@@H]21` (single isomer, unassigned) [Compound 13] registered a Ki in assay [1] of 37.1 nM. Also, the EC50 in the assay with EpiSC-derived OPCs was 17 nM; in assay [2], 6.5 nM.

As to `CCn1nc(-c2ccnc(C(F)(F)F)c2)cc1[C@H]1[C@@H]2C[C@H](N3CCC4(C3)CS(=O)(=O)C4)C[C@@H]21` [Compound 27, 6-((1R,3r,5S,6r)-6-(1-ethyl-3-(2-(trifluoromethyl)pyridin-4-yl)-1H-pyrazol-5-yl)bicyclo[3.1.0]hexan-3-yl)-2-thia-6-azaspiro[3.4]octane 2,2-dioxide], the Ki in assay [1] worked out at 11.6 nM. The EC50 in the assay with EpiSC-derived OPCs was found to be 1.6 nM; in assay [2] it was 2.3 nM.

Source of the values: US20240391930A1, “SPIROCYCLIC BICYCLIC MODULATORS OF CHOLESTEROL BIOSYNTHESIS AND THEIR USE FOR PROMOTING REMYELINATION” (GENENTECH, INC., priority 2021, published 2024).
